This note sets out measurements from US9573961B2, “Inhibitors of the renal outer medullary potassium channel” (Merck Sharp & Dohme Corp., priority 2012, dated 2017).

One assay addresses Kir1.1 (ROMK1) (Homo sapiens (Human), UniProt P48048). Kind of assay: Electrophysiology Assay (whole cell voltage clamp, IonWorks Quattro). Format: cell-based. The following applies: block during voltage step to 0 mV. In a few lines: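 CHO cells stably expressing the channel, induced overnight with 1 mM sodium butyrate, were recorded in amphotericin-perforated patch mode. The test pulse was a 100 ms step to 0 mV from −70 mV, then a −70 to +70 mV ramp, applied before and after a 6 min compound incubation. Current amplitudes were compared.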
On the technique in general: Patch clamp records ionic current or voltage across a cell membrane.

The next assay deals with hROMK (hKir1.1) (Homo sapiens (Human), UniProt P48048). The assay is described as follows: Thallium Flux Assay (ROMK channel functional thallium flux, FLIPR-Tetra). Format: cell-based. In a few lines: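 HEK293 cells stably expressing hROMK loaded with FluxOR dye for 90 min, then incubated with compound for 30 min at 23-25 °C. Normalized to a 3 μM standard ROMK inhibitor as % fluorescence change.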

The mark [1] stands for this setting: Chinese hamster ovary cells stably expressing Kir1.1, read-out: Electrophysiology IC50.
[2] abbreviates: HEK293 cells stably expressing hROMK (hKir1.1), read-out: Thallium Flux IC50.
Where [3] appears, read: Electrophysiology IC50, Chinese hamster ovary cells stably expressing Kir1.1.

pIC50: −log10 of the molar value. Read-outs that look alike come from different tables or passages of the source.

Chain of hROMK (hKir1.1) (P48048 whole entry): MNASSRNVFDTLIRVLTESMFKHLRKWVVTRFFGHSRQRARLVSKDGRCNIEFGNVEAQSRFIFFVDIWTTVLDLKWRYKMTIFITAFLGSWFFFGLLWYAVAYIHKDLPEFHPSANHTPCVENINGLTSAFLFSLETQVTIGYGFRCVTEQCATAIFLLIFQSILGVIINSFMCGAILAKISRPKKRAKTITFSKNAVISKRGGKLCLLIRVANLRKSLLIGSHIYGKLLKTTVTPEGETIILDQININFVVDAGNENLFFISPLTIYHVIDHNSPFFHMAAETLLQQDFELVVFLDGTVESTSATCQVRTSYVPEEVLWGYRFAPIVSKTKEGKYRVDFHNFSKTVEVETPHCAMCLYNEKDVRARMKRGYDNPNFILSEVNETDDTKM
Chain of Kir1.1 (ROMK1) (P48048 whole entry): as above

Broadly, the pIC50 is −log10 of the IC50, conventionally taken in molar units. Turning to `O=C1OCCc2cc([C@@H]3CN4CCN(C(=O)C5CCCc6cc(-n7cnnn7)ccc65)C[C@H]4CO3)ccc21` (single isomer, unassigned) [Example 90], the negative-log IC50 (pIC50) on Kir1.1 (ROMK1) (setting [1]) is 6.59; at hROMK (hKir1.1) (setting [2]), 6.37.

Take `Cc1c([C@H]2CN3CCN(C(=O)C4CCc5cc(-n6cnnn6)ccc54)C[C@H]3CO2)ccc2c1COC2=O` (single isomer, unassigned) [Example 81]: the pIC50 on Kir1.1 (ROMK1) (setting [1]) was 6.59; on hROMK (hKir1.1) (setting [2]) it was 6.64.

Take `Cc1c([C@H]2CN3CCN(C(=O)C4CCCc5cc(-n6cnnn6)ccc54)C[C@H]3CO2)ccc2c1COC2=O` (single isomer, unassigned) [Example 88]: the figures for the pIC50 at Kir1.1 (ROMK1) (setting [1]) and at hROMK (hKir1.1) (setting [2]) were 6.34 and 6.42, respectively.

Regarding `COc1cc(F)c([C@@H]2CN3CCN(C(=O)Cc4ccc(-n5cnnn5)cc4)C[C@H]3CO2)cc1C#N` [Example 27, 4-fluoro-2-methoxy-5-[(3R,9aS)-8-{[4-(1H-tetrazol-1-yl)phenyl]acetyl}octahydropyrazino[2,1-c][1,4]oxazin-3-yl]benzonitrile], the pIC50 on Kir1.1 (ROMK1) (setting [3]) was 6.41; on hROMK (hKir1.1) (setting [2]), 6.74.

Regarding `COc1cc(CC(=O)N2CCN3C[C@@H](c4ccc5c(c4)CCOC5=O)OC[C@@H]3C2)c(F)cc1C#N` [Example 30, 5-fluoro-2-methoxy-4-{2-oxo-2-[(3R,9aS)-3-(1-oxo-3,4-dihydro-1H-isochromen-6-yl)hexahydropyrazino[2,1-c][1,4]oxazin-8(1H)-yl]ethyl}benzonitrile], the pIC50 at Kir1.1 (ROMK1) (setting [3]) was 6.96; at hROMK (hKir1.1) (setting [2]), 7.00.

For the molecule `COc1ccc([C@H]2CN3CCN(C(=O)C4CCc5cc(-n6cnnn6)ccc54)C[C@H]3CO2)c(C)c1C#N` (stereo partly drawn) [Example 62, 6-methoxy-2-methyl-3-[(3S,9aS)-8-{[5-(1H-tetrazol-1-yl)-2,3-dihydro-1H-inden-1-yl]carbonyl}octahydropyrazino[2,1-c][1,4]oxazin-3-yl]benzonitrile], the pIC50 is 6.19 on Kir1.1 (ROMK1) (setting [1]) and 6.70 on hROMK (hKir1.1) (setting [2]).

For `Cc1c([C@@H]2CN3CCN(C(=O)Cc4ccc(-n5cnnn5)cc4)C[C@H]3CO2)ccc(Cl)c1C#N` [Example 34, 6-chloro-2-methyl-3-[(3R,9aS)-8-{[4-(1H-tetrazol-1-yl)phenyl]acetyl}octahydropyrazino[2,1-c][1,4]oxazin-3-yl]benzonitrile], the negative logarithm of the IC50 (pIC50) at Kir1.1 (ROMK1) (setting [3]) was 6.70; at hROMK (hKir1.1) (setting [2]) it was 6.72.

Consider `COc1c([C@@H]2CN3CCN(C(=O)Cc4ccc(-n5cnnn5)cc4)C[C@H]3CO2)ccc(F)c1C#N` [Example 32, 6-fluoro-2-methoxy-3-[(3R,9aS)-8-{[4-(1H-tetrazol-1-yl)phenyl]acetyl}octahydropyrazino[2,1-c][1,4]oxazin-3-yl]benzonitrile], for which the pIC50 on Kir1.1 (ROMK1) (setting [3]) is 6.85; on hROMK (hKir1.1) (read-out: Thallium Flux IC50) it was 7.00.

On to `Cc1c([C@@H]2CN3CCN(C(=O)Cc4c(F)cc(-n5cnnn5)cc4F)C[C@@H]3CO2)ccc2c1COC2=O` [Example 79, 5-[(3R,9aR)-8-{[2,6-difluoro-4-(1H-tetrazol-1-yl)phenyl]acetyl}octahydropyrazino[2,1-c][1,4]oxazin-3-yl]-4-methyl-2-benzofuran-1(3H)-one], for which the pIC50 at Kir1.1 (ROMK1) (setting [1]) was 6.72; on hROMK (hKir1.1) (setting [2]), 6.59.

As for `Cc1c([C@H]2CN3CCN(C(=O)Cc4c(F)cc(-n5cnnn5)cc4F)C[C@H]3CN2)ccc(F)c1C#N` [Example 103], the pIC50 on Kir1.1 (ROMK1) (setting [3]) was 7.10; on hROMK (hKir1.1) (Thallium Flux IC50) it was 6.96.

Turning to `Cc1c([C@@H]2CN3CCN(C(=O)Cc4ccc(-n5cnnn5)cc4)C[C@H]3CO2)csc1C#N` [Example 39, 3-methyl-4-[(3R,9aS)-8-{[4-(1H-tetrazol-1-yl)phenyl]acetyl}octahydropyrazino[2,1-c][1,4]oxazin-3-yl]thiophene-2-carbonitrile], the pIC50 on Kir1.1 (ROMK1) (setting [3]) and on hROMK (hKir1.1) (setting [2]) was 7.22 each time.

On to `Cc1c([C@@H]2CN3CCN(C(=O)Cc4ccc(-n5cnnn5)cc4)C[C@@H]3CO2)ccc2c1COC2=O` [Example 13, 4-methyl-5-[(3R,9aR)-8-{[4-(1H-tetrazol-1-yl)phenyl]acetyl}octahydropyrazino[2,1-c][1,4]oxazin-3-yl]-2-benzofuran-1(3H)-one], for which the negative logarithm of the IC50 (pIC50) against Kir1.1 (ROMK1) (setting [3]) was 6.82; at hROMK (hKir1.1) (setting [2]), 6.92.

For the molecule `Cc1c([C@@H]2CN3CCN(C(=O)Cc4ccc5c(c4)COC5=O)C[C@H]3CO2)ccc(F)c1C#N` [Example 24, 6-fluoro-2-methyl-3-{(3R,9aS)-8-[(1-oxo-1,3-dihydro-2-benzofuran-5-yl)acetyl]octahydropyrazino[2,1-c][1,4]oxazin-3-yl}benzonitrile], the pIC50 on Kir1.1 (ROMK1) (setting [3]) is 7.10; at hROMK (hKir1.1) (read-out: Thallium Flux IC50), 7.22.

Turning to `C[C@@H]1Cc2cc([C@@H]3CN4CCN(C(=O)Cc5c(F)cc(-n6cnnn6)cc5F)C[C@H]4CN3)ccc2C(=O)O1` [Example 105], the negative-log IC50 (pIC50) on Kir1.1 (ROMK1) (setting [3]) is 6.74; at hROMK (hKir1.1) (setting [2]), 6.44.

For the molecule `Cc1c([C@@H]2CN3CCN(C(=O)Cc4c(F)cc(-n5cnnn5)cc4F)C[C@H]3CO2)ccc(F)c1C#N` [Example 52, 3-[(3R,9aS)-8-{[2,6-difluoro-4-(1H-tetrazol-1-yl)phenyl]acetyl}octahydropyrazino[2,1-c][1,4]oxazin-3-yl]-6-fluoro-2-methylbenzonitrile], the pIC50 was 7.15 on Kir1.1 (ROMK1) (setting [1]) and 6.77 at hROMK (hKir1.1) (setting [2]).
